Patent EP0029617A1, “Use of tertiary heterocyclic amines as synergists in pesticides; derivatives of cycloamines” (priority 1979, dated 1981)
Like-named read-outs stand apart in the source and are kept apart here.

Test system: Kornkäfer (sitophilus granarius L)
Experiment: whole plant or invertebrate
Assay type: in vivo
Conditions: for mortality at 1000 µg/mL: Sitophilus granarius, read-out: Wirksamkeit in % Substanz allein
Method: Test von tertiären, heterocyclischen Aminen allein und im Gemisch mit Pyrethroiden an Kornkäfern (sitophilus granarius L)
In Petrischalen mit 15 cm Durchmesser mit talcumbepuderten Seitenwänden, um das Entfliehen der Kornkäfer zu verhindern, wurden jeweils 2 ml der Acetonlösungen einpipettiert und durch vorsichtiges Schwenken der Schalen gleichmäßig auf dem Boden verteilt. Nach dem Abdampfen des Acetons und dem Antrocknen der Beläge wurden in jede Schale 25 Kornkäfer eingezählt. Nach einer Stunde wurde jeweils ein 12,5 cm Rundfilter in die Schalen eingelegt, um den Käfern das Befreien aus der Rückenlage zu ermöglichen, was auf der glatten Glasplatte nicht möglich ist. Die lichtscheuen Käfer verkrochen sich mit Vorliebe unter die Filter und blieben so ständig mit den Wirkstoffbelägen in Kontakt. Alle Versuche liefen mit 3 Wiederholungen. Nach 3 h wurden die toten Käfer ausgezählt.
In der Tabelle 3 ist jeweils der Durchschnitt der Summe der 4 Einzelwerte angegeben. 25 tote Kornkäfer entsprechen dabei einer Wirkung von 100 %. Die Temperaturen betrugen während der Tests im Durchschnitt 19 - 21°C. Der synergistische Faktor berechnet sich analog wie in Beispiel 1 angegeben.
Die zu prüfenden tertiären, heterocyclischen Amine wurden - mit 1 mg Wirkstoff pro ml als Acetonlösungen angesetzt. Sie wurden im Verhältnis 1 : 1 mit Ripcord bzw. Talcord, die mit 0,01 mg Wirkstoff pro ml als Acetonlösung vorlagen, gemischt. Die Einzelkomponenten wurden im Verhältnis 1 : 1 mit Aceton gemischt.
Auch bei diesen Versuchen zeigten die Kontrollversuche stets bei Versuchsende eine Mortalität der Kornkäfer von 0 %.
Die synergistische Wirkung der tertiären, heterocyclischen Amine auf die Pyrethroide ist auch dann noch deutlich, wenn das Amin in wesentlich niederen Aufwandmengen eingesetzt wird, als dies in Beispiel 3 beschrieben wurde. Die Ergebnisse sind in der Tabelle 4 zusammengestellt. Dieser Versuch zeigt auch, daß Amine mit insektiziden Eigenschaften, wenn sie in Konzentrationen unterhalb ihres insektiziden Wirkungsbereiches eingesetzt werden, immer noch gute synergistische Wirkungen im Gemisch mit Pyrethroiden zeigen. Die Versuche wurden wie im Beispiel 3 beschrieben mit Kornkäfern durchgeführt. Es wurden lediglich die Konzentrationen der eingesetzten tertiären, heterocyclischen Amine geändert. Für die Verdünnung Pyrethroid : Amin = 1 : 10 wurde das Amin mit 0,1 mg Wirkstoff/ml Acetonlösung eingesetzt. Für die Verdünnung 1 : 5 mit 0,05 mg Wirkstoff/ml.

[1] = amine 1 mg/ml + Ripcord 0,01 mg/ml
[2] = amine 1 mg/ml + Talcord 0,01 mg/ml
[3] = amine 1 mg/ml in Aceton mixed 1 : 1 with Aceton, 2 ml per dish, 25 weevils, dead counted after 3 h
[4] = amine 1 mg/ml mixed 1 : 1 with Ripcord 0,01 mg/ml, 3 h
[5] = amine 1 mg/ml mixed 1 : 1 with Talcord 0,01 mg/ml, 3 h
[6] = sitophilus granarius, in vivo, 3 h
[7] = Pyrethroid : Amin 1 : 10, amine 0,1 mg/ml, 180 min

| Compound | Synergistischer Faktor bei Ripcord [1] | Synergistischer Faktor bei Talcord [2] | Wirksamkeit in % Substanz allein [3] | Wirksamkeit in % Substanz +Ripcord [4] | Wirksamkeit in % Substanz +Talcord [5] | further results |
| --- | --- | --- | --- | --- | --- | --- |
| C=CC(C)(CCC=C(C)C)N1CCCCCC1 (centres unmarked) [6-N-Hexamethylenimino-2,6-dimethyl-octadien-(2,7)] | 2,41 | 7,30 | 0% | 76,0% | 70,8% | – |
| CCCCCCCCCCCCN1CC1 [N-1-Dodecyl-ethylenimin] | 2,86 | 3,71 | – | 90,0% | 36,0% | mortality at 1000 µg/mL (3 h): 0% |
| CCCCCCCCN1CCCCC1CC (centres unmarked) [N-1-Octyl-2-ethyl-piperidin] | 1,52 | 2,60 | – | 74,8% | 52,0% | mortality at 1000 µg/mL [3]: 26.8% |
| C#CCN1CCCCC1CC (centres unmarked) [N-1-Propanrgyl-2-ethyl-piperidin] | 2,92 | 3,84 | 0% | 92,0% | 37,2% | – |
| C(CCCCN1CCCCC1)CCCN1CCCCC1 [1,8-N,N-Di-piperidino-octan] | – | – | 61,2% | 90,8% | 65,2% | – |
| CN(C)C(=O)N1CCCCCC1 [N-Dimethyl-carbamoyl-hexa-methylenimin] | 2,45 | 5,48 | 0% | 77,2% | 53,2% | – |
| c1ccc(C(N2CCCCC2)N2CCCCC2)cc1 [Benzal-di-N,N-piperidin] | – | – | 0% | 40,0% | 18,8% | Synergistischer Faktor bei Ripcord (in vivo): 1,26; Synergistischer Faktor bei Talcord (in vivo): 1,94 |
| O=C(OCc1ccccc1)C(c1ccccc1)N1CCCCC1 (centres unmarked) [Phenyl-N-piperidino-essig-säure-benzylester] | 3,05 | 2,89 | 0% | 96,0% | 28,0% | – |
| N-Lactosido-pyrrolidin | 2,70 | 2,06 | 0% | 85,2% | 20,0% | – |
| CCCCOC(CN1CCCCC1)OCCCC [2-N-Piperidino-ethyl-dibutyl-acetal] | – | – | 0% | 86,8% | 36,0% | Synergistischer Faktor bei Ripcord (in vivo): 2,76; Synergistischer Faktor bei Talcord (in vivo): 3,71 |
| CCCCCN1CCOCC1 [N-1-Pentyl-morpholin] | 2,79 | 3,83 | – | 88,0% | 37,2% | mortality at 1000 µg/mL [3]: 0% |
| CC(C)=CCCC(C)=CCN1CCCCC1 [N-1-Piperidino-3,7-dimethyl-octadien-(2,6)] | 2,79 | 8,37 | 0% | 88,0% | 81,2% | – |
| CC(C)=CCCC(C)=CCCC(C)=CCN1CCCCC1 [N-Farnesyl-piperidin] | 2,67 | 4,25 | – | 84,0% | 41,2% | mortality at 1000 µg/mL [3]: 0% |
| C1CCN(CCOCCOCCN2CCCC2)C1 [1,2-Bis-(2-N-pyrrolidino-ethoxi)-ethan] | 3,17 | 7,13 | 0% | 100,0% | 69,2% | – |
| OCCN1CCOCC1 [N-Ethanol-morpholin] | 2,12 | 4,0 | 0% | 66,8% | 38,8% | – |
| CCCCCCCCCCCCN1CCCCC1C (centres unmarked) [N-1-Dodecyl-2-methyl-piperidin] | 1,49 | 2,06 | – | 46,8% | 20,0% | mortality at 1000 µg/mL [3]: 0% |
| C1CCCC(N2CCOCC2)CC1 [N-Cycloheptyl-morpholin] | 1,78 | 3,59 | – | 56,0% | 34,8% | mortality at 1000 µg/mL [3]: 0% |
| 1-N-p-Menthen-piperidin | 1,90 | 7,42 | 0% | 60,0% | 72,0% | – |
| CCOC(=O)C(c1ccccc1)C(C(=O)OCC)N1CCCC1 (centres unmarked) [Phenyl-N-pyrrolidin-bern-steinsäure-diethylester] | 2,79 | 2,76 | 0% | 88,0% | 26,8% | – |
| CCCCOCCOCCN1CCCC1 [N-1-(2'-Butoxi-diethyl-ether-(2))-pyrrolidin] | – | – | – | – | – | Synergistischer Faktor bei Ripcord (in vivo): 2,47; Wirksamkeit in % Substanz +Ripcord [6]: 78,0%; Wirksamkeit in % Substanz +Talcord [6]: 8,9%; Wirksamkeit in % Substanz allein [6]: 0% |
| Clc1ccc(CN2CCCC2)cc1 [N-4-Chlor-benzyl-pyrrolidin] | 3,17 | 2,35 | 0% | 100,0% | 22,8% | Synergistischer Faktor bei Ripcord (Pyrethroid : Amin 1 : 10): 3,09; Synergistischer Faktor bei Talcord (Pyrethroid : Amin 1 : 10): 7,55; % Wirkung Substanz +Ripcord [7]: 97,2%; % Wirkung Substanz +Talcord [7]: 73,2%; % Wirkung Substanz allein (amine 0,1 mg/ml (as for Pyrethroid : Amin 1 : 10), 180 min): 0% |
| c1ccc(OCCN2CCCCC2)cc1 [N-2-Phenoxi-ethyl-(1)-piperidin] | 2,54 | 6,60 | 4,0% | 84,0% | 68,0% | – |
| CCCCCCCCCCN1CCOCC1 [N-1-Decyl-morpholin] | 2,32 | 8,37 | – | 73,1% | 81,2% | mortality at 1000 µg/mL [3]: 0% |
| OC(CCl)CN1CCCCC1 (centres unmarked) [1-N-Piperidino-2-hydroxi-3-chlor-propan] | 1,74 | 5,65 | 0% | 54,8% | 54,8% | – |
| Oc1cc(CN2CCCCC2)c(O)cc1CN1CCCCC1 [2,5-Bis-(N-piperidino-methyl)-hydrochinon] | 1,78 | 2,47 | 0% | 56,0% | 24,0% | – |
| CCCCCC(C=O)CN1CCCCC1 (centres unmarked) [N-Piperidino-methyl-heptanal] | – | – | 0% | 49,2% | 60,0% | Synergistischer Faktor bei Ripcord (in vivo): 1,56; Synergistischer Faktor bei Talcord (in vivo): 6,19 |
| C(CCCCN1CCCC1)CCCN1CCCC1 [1,8-N,N-Di-pyrrolidino-octan] | 2,79 | 6,60 | 0% | 88,0% | 64,0% | – |
| CCCCCCCCCCCCN1CCCCC1 [N-1-Dodecyl-piperidin] | 2,24 | – | – | 94,6% | – | mortality at 1000 µg/mL [3]: 24% |
